Experimental data from US20110294881A1, “METHODS FOR TREATING LOWER URINARY TRACT DISORDERS USING alpha2delta SUBUNIT CALCIUM CHANNEL MODULATORS WITH SMOOTH MUSCLE MODULATORS” (EDUSA PHARMACEUTICALS, INC., priority 2003, published 2011).

Key:
[1] = tested on: α2δ subunit of calcium channels; conditions: Bryans et al. (1999) Med. Res. Rev. 19:149-177; cited from earlier work
[2] = tested on: female rats, dilute acetic acid irritated bladder; assay: Dilute acetic acid model, acute anesthetized rats: bladder capacity by cystometry; type: in vivo, rat; conditions: Example 1; for effectiveness of drug alone on bladder capacity: i.v.; for effective dose range of the drug in combination versus the drug alone (isobologram): individual animals, return to 31% of saline control, FIG. 4
Experimental: (§1) Urethane anesthetized (1.2 g/kg) normal female rats were utilized in this study.
(§2) Animals were dosed by volume of injection=body weight in kg.
Animal Preparation: Female rats (250-300 g body weight) were anesthetized with urethane (1.2 g/kg) and a saline-filled catheter (PE-50) was inserted into the jugular vein for intravenous drug administration. […] The abdominal cavity was moistened with saline and closed by covering with a thin plastic sheet in order to maintain access to the bladder for emptying purposes. Fine silver or stainless steel wire electrodes were inserted into the external urethral sphincter (EUS) percutaneously for electromyography (EMG).
Following 30 minutes of AA infusion, 3 vehicle injections were made at 20 minute intervals to determine vehicle effects, if any.
P<0.050 was considered significant.
as §1, §2

[3] = tested on: female cats, dilute acetic acid irritated bladder; assay: Dilute acetic acid model in cats: bladder capacity and voiding efficiency; type: in vivo; conditions: cat; 30 mg/kg dose alone
Experimental: Alpha-chloralose anesthetized (50-100 mg/kg) normal female cats (2.5-3.5 kg; Harlan) were utilized in this study.
Female cats (2.5-3.5 kg; Harlan) had their food removed the night before the experiment. The following morning, the cat was anesthetized with isoflurane and prepped for surgery using aseptic technique. Polyethylene catheters were surgically placed to permit the measurement of bladder pressure, urethral pressure, arterial pressure, respiratory rate as well as for the delivery of drugs. Fine wire electrodes were implanted alongside the external urethral anal sphincter. Following surgery, the cats were slowly switched from the gas anesthetic isoflurane (2-3.5%) to alpha-chloralose (50-100 mg/kg). During control cystometry, saline was slowly infused into the bladder (0.5-1.0 ml/min) for 1 hour. The control cystometry was followed by 0.5% acetic acid in saline for the duration of the experiment. After assessing the cystometric variables under these baseline conditions, the effects of test drug(s) on micturition were determined via a 3-5 point dose response protocols.
For the purposes of assessing synergy using all of the data simultaneously, bladder capacity data for each animal were normalized to % Recovery from Irritation, and this index was used as the measure of efficacy. […]

[4] = preclinical and clinical studies; broad range of oral doses; cited from earlier work
SCI rats = conditions: Cheng et al., 1995, Brain Res. 678:40-48; cited from earlier work

For `CC(C)C[C@H](CN)CC(=O)O` [Pregabalin, (S)-(3-aminomethyl)-5-methylhexanoic acid], the “binding affinity for the α2δ subunit of calcium channels relative to gabapentin” value [1] is given as “even higher binding affinity”.

With `NCC1(CC(=O)O)CCCCC1` [gabapentin, 1-(aminomethyl)cyclohexaneacetic acid] the “effectiveness of drug alone on bladder capacity” value [2] was “modest effectiveness”, the “effective dose range of the drug in combination versus the drug alone (isobologram)” value [2] was “significantly lower” and the “effect on bladder capacity” value [3] was “no significant effect”.

In the case of `CC(OC(=O)NCC1(CC(=O)O)CCCCC1)OC(=O)C(C)C` (stereo not drawn) [XP13512], the “blood levels of gabapentin after oral prodrug” value [4] is given as “dose proportional blood levels of gabapentin”.

In the case of `COc1cc(CNC(=O)CCCC/C=C/C(C)C)ccc1O` [capsaicin], the “bladder capacity to voiding” value (SCI rats) is listed as “not effect bladder capacity to voiding” and the bladder instability (SCI rats) is listed as “reduce bladder instability”.

In the case of `CCN(CC)CC#CCOC(=O)C(O)(c1ccccc1)C1CCCCC1` (stereo not drawn) [oxybutynin, 4-diethylaminio-2-butynyl phenylcyclohexyglycolate], the “effectiveness of drug alone on bladder capacity” value [2] is reported as “modest effectiveness” and the “effective dose range of the drug in combination versus the drug alone (isobologram)” value [2] is reported as “significantly lower”.
